The values below come from patent US20050191693A1, “Methods and cell populations for identifying and validating genomic targets, and for drug screening” (priority 2001, published 2005).

Like-named read-outs stand apart in the source and are kept apart here.

Series [1] deals with cardiomyocyte nuclei in the ventricular septum. More on the design: species or system mice. The note with it: mouse, in vivo, 7 days. As to the method:
Cryosections (10 μm) were generated using standard histologic techniques. For ISEL analysis, cryosections were processed using the Oncogene Research KLENOW-FragEL DNA Fragmentation Detection Kit. Signal was developed with biotinylated nucleotides and horseradish peroxidase (HRP) conjugated streptavidin (Roche Molecular Biochemicals). Signal was generated by incubation with diaminobenzidine using standard techniques. Beta-galactosidase activity was detected in the same sections via X-GAL staining as described (Soonpaa M. H. et al. (1994) Science 264: 98-101).
Isoproterenol is a beta-adrenergic agonist that induces cardiomyocyte hypertrophy both in vitro and in vivo. Prolonged exposure to isoproterenol is cardiotoxic, inducing cardiomyocyte apoptosis via a mechanism similar to that encountered during the progression of heart failure. The MHC-1152stp mice were tested to determine if transgene expression was cardioprotective during isoproterenol infusion, and specifically to see if 1152stp expression could antagonize isoproterenol-induced cardiomyocyte apoptosis. […]
Mice with a MHC-1152stp/MHC-nLAC genotype and a (−)/MHC-nLAC genotype were culled, and at 12 weeks of age were implanted with isoproterenol-filled osmotic mini-pumps, as described in several studies from our group (Soonpaa M. H. and Field L. J. (1994) American Journal of Physiology 266 (Heart and Circulatory Physiology 35): H1439-1445; Pasumarthi K. B., Nakajima H., Nakajima H. O., Jing S., Field L. J. (2000) Circ Res. 86: 1069-1077). […] Cardiomyocyte apoptosis was then calculated simply by determining the incidence of black HRP signal over blue nuclear staining; these analyses focused on cardiomyocytes residing in the ventricular septum, where the cardiotoxic effects of isoproterenol appear to be most pronounced. […]

For series [2], the system named is ES-cell derived cardiomyocytes. Put plainly: Beating frequency of ES cell-derived cardiomyocytes (contractions counted manually during 15 sec). It counts as cell-based, mouse. The note with it: cardiomyocytes 25 days after start of differentiation. As to the method: Gated cardiomyocytes where cultivated in 6 cm tissue culture dishes. Fresh medium was supplemented with the test compound in concentrations ranging from 0.01-10 μM. For heat shock treatment the cells where incubated at 42° C. for 30 min. Mock treated cells served as control. Effects on the cardiomyocyte beating rate where recorded by manually counting the number of contractions during 15 sec. Beating rates have been recorded before addition of substances and 15 min and 4h after addition. After 4h of incubation the cells where washed with PBS, collected in reporter lysis buffer (RLB, Promega) and stored at −80° C.
Effects of noradrenaline are mediated via alpha and beta-adrenergic receptors, while isoproterenol effects are mediated specific via β-adrenergic receptors. Since β1 receptors play a pivotal role in mediating the beating rate, we analyzed changes in beating frequency of cardiomyocytes as a first indication of a response towards the tested compounds. The beating rate of a individual cluster per plate has been recorded before, 15 min after application of the stimulus and after 4h incubation. FIG. 3 summarizes the data of such an analysis using cardiomyocytes 25 days after start of differentiation. […] Due to the low starting beating frequency in some cases the x-fold increase is quite high. Nevertheless these elevated beating frequencies where still in the physiological range. […]

The next series relates to CT-1 promoter. The series can be described thus: CT1-promoter luciferase reporter activity in ES cell-derived cardiomyocytes. It counts as cell-based, mouse. The note with it: 0.1 μM, incubation for 4h, corrected for total protein. On the technique in general: Reporter assays use an easily measured gene product as a stand-in for the process of interest.
Setting [3] is: MHC-nLAC transgenic ((−)/MHC-nLAC genotype).

Method for CT-1 promoter: Gated cardiomyocytes where cultivated in 6 cm tissue culture dishes. Fresh medium was supplemented with the test compound in concentrations ranging from 0.01-10 μM. For heat shock treatment the cells where incubated at 42° C. for 30 min. Mock treated cells served as control. […] After 4h of incubation the cells where washed with PBS, collected in reporter lysis buffer (RLB, Promega) and stored at −80° C. The Luciferase-activity in the thawed lysates was measured by flash-light Luciferase assay (Promega). In order to quantify Luciferase-activity a serial diluted recombinant Luciferase standard was analyzed in parallel. Values for Luciferase-activity where correct for the amount of total protein in the lysates measured by BCA-assay (Pierce). The transcriptional activity of the CT1-promoter was analyzed by measurement of Luciferase activity in the cellular lysates.

In the case of `CC(C)NCC(O)c1ccc(O)c(O)c1` (stereo not shown) [isoproterenol], the “% ISEL Positive” value in series [1] ((−)/MHC-nLAC transgenic) was roughly 0.1%. In series [1] (setting [3]), the “% ISEL Positive” value is given as 0.098% and the “ISEL Positive CM Nuclei” value is listed as 35 of 35604.
Regarding `CN(C)CCCN1c2ccccc2CCc2ccccc21` [imipramine], in series [2] (0.1 μM), the “change in beating frequency” value is listed as “increase in beating frequencies”. In addition, in the series with CT-1 promoter, the “increase of CT1-promoter activity (Luciferase activity) compared to the untreated control” value was “more than 2 fold”.
Take `NC[C@H](O)c1ccc(O)c(O)c1` [noradrenaline]: the “change in beating frequency” value in series [2] (recorded before, 15 min and 4h after application, 0.01-10 μM) is reported as “dose dependent increase”. Besides, the “increase of CT1-promoter activity (Luciferase activity) compared to the untreated control” value with CT-1 promoter stood at 1.73 fold.
